Assay type in all cases: cell-based
One assay deals with senescent A549 cells. As to the kind of experiment: Senescence assay, viability of senescent A549 cells (CellTiter-Glo or XTT). Particulars: Homo sapiens; chemotherapy-induced senescent A549 cells; compounds 24-72 hours; viability relative to untreated control; read-out: Absolute IC50 average A549_SEN IC50. How it is done: (§1) Cells were maintained in DMEM media (high glucose, 4 mM L-glutamine, no sodium pyruvate) supplemented with 10% fetal bovine serum in a humidified incubator at 37° C. with 5% carbon dioxide. Senescence was induced via treatment with a sublethal concentration of chemotherapy (bleomycin, gemcitabine, doxorubicin, 5-fluorouridine, mitomycin C), followed by a rest period without chemotherapy similarly to what is reported by others in the field (e.g., Aoshiba et al., 2003 Eur Respir J 22:436-443). Senescence was qualified by low EdU (5-ethynyl-2′-deoxyuridine) incorporation and high SA-β-Gal (senescence-associated beta-galactosidase) staining compared to proliferating untreated cells. Senescent cells were plated into 96-well plates at a density of 5-15,000 cells/well. The next day, compounds were added in duplicate across ten different concentrations spanning roughly four Log10 units. Cells were incubated with the compounds for 24-72 hours, at which point viability was quantified using CellTiter-Glo (Promega) or XTT (R&D Systems). The viability for treated cells was determined relative to untreated control cells. The log of the compound concentration vs. normalized mean viability was fit to a four parameters Hill function with variable slope. The bottom was constrained to be greater than zero. The X mean value for Y=50 was interpolated to determine the absolute IC50. The results in Table 1 indicate that many of the compounds are active in cells and can induce a dose dependent decrease in the viability of senescent A549 and IMR90 cells.
On the technique in general: In ATP-based viability assays light output follows the ATP content of the culture.

The subject of the next assay is senescent IMR90 cells. As to the kind of experiment: Senescence assay, viability of senescent IMR90 cells (CellTiter-Glo or XTT). Particulars: Homo sapiens, IMR-90; chemotherapy-induced senescent IMR90 cells; compounds 24-72 hours; viability relative to untreated control; read-out: Absolute IC50 average IMR90_SEN IC50. How it is done: as §1
The test system of another assay is HACAT_SEN. As to the kind of experiment: Senescence assay, viability of senescent HACAT cells (CellTiter-Glo or XTT). As to conditions: Homo sapiens, compounds 24-72 hours, viability relative to untreated control, read-out: Absolute IC50 average HACAT_SEN IC50. How it is done:
as §1, with “The results in Table 1 indicate that many of the compounds are active in cells and can induce a dose dependent decrease in the viability of senescent A549 and IMR90 cells.” left out

In the case of `Cc1c(-c2ccc(N3CCc4cccc(C(=O)Nc5nc6ccccc6s5)c4C3)nc2P(C)(=O)OCc2ccc(O[C@@H]3O[C@@H](C)[C@@H](O)[C@@H](O)[C@@H]3O)cc2)cnn1CC12CC3CC(CC(C3)C1)C2` (stereo partly drawn) [Compound 3, 4-(((2S,3S,4R,5S,6S)-3,4,5-trihydroxy-6-methyltetrahydro-2H-pyran-2-yl)oxy) benzyl(3-(1-(((3r,5r,7r)-adamantan-1-yl)methyl)-5-methyl-1H-pyrazol-4-yl)-6-(8-(benzo[d]thiazol-2-ylcarbamoyl)-3,4-dihydroisoquinolin-2 (1H)-yl)pyridin-2-yl)(methyl)phosphinate], the figures for the IC50 in the assay on senescent A549 cells and in the assay on senescent IMR90 cells were 10 to 100 nM and 100 to 1000 nM, respectively.

Take `Cc1cc(N(C)c2nc(P(C)(=O)O)c(CCCOc3ccc(C#CCN(C)C)cc3F)s2)nnc1Nc1nc2ccccc2s1` [Compound 4, (2-((6-(benzo[d]thiazol-2-ylamino)-5-methylpyridazin-3-yl)(methyl)amino)-5-(3-(4-(3-(dimethylamino)prop-1-yn-1-yl)-2-fluorophenoxy)propyl)thiazol-4-yl)(methyl)phosphinic acid]: the IC50 in the assay with senescent A549 cells lay within 100 to 1000 nM; with senescent IMR90 cells, 1000 to 10000 nM.

Consider `Cc1c(-c2ccc(N3CCc4cccc(C(=O)Nc5nc6ccccc6s5)c4C3)nc2P(C)(=O)O)cnn1CC12CC3CC(CC(C3)C1)C2` [Compound 2, (3-(1-(((3r,5r,7r)-adamantan-1-yl)methyl)-5-methyl-1H-pyrazol-4-yl)-6-(8-(benzo[d]thiazol-2-ylcarbamoyl)-3,4-dihydroisoquinolin-2 (1H)-yl)pyridin-2-yl)(methyl)phosphinic acid], for which the IC50 in the assay with senescent A549 cells fell in the range of 10 to 100 nM; in the assay on senescent IMR90 cells, 100 to 1000 nM.

As for `CCOP(C)(=O)c1nc(N2CCc3cccc(C(=O)Nc4nc5ccccc5s4)c3C2)ccc1-c1cnn(CC23CC4CC(CC(C4)C2)C3)c1C` (stereo not drawn) [Compound 1, ethyl(3-(1-(((3r,5r,7r)-adamantan-1-yl)methyl)-5-methyl-1H-pyrazol-4-yl)-6-(8-(benzo[d]thiazol-2-ylcarbamoyl)-3,4-dihydroisoquinolin-2 (1H)-yl)pyridin-2-yl)(methyl)phosphinate], the IC50 with senescent A549 cells was 10 to 100 nM; in the assay on senescent IMR90 cells it was 10 to 100 nM; in the assay on HACAT_SEN, less than 10 nM.

By IC50 is commonly meant the concentration needed to halve the response being measured.
